Consider two compounds from patent US10703798B2, “Methods of cancer therapy by inhibiting fusion polypeptides comprising fibroblast growth factor receptor 2 (FGFR2) and vinculin (VCL)” (DEBIOPHARM INTERNATIONAL SA, priority 2014, dated 2020).

For series [1], the system named is FGFR2-CCDC147 expressing Rat2 cells. Put plainly: Cell proliferation assay using Cell Titer Glo, FGFR2-CCDC147 expressing cells. The class given is cell-based, rat. To be noted: 72 h with inhibitor, cellular ATP content (Cell Titer Glo), read-out: Relative IC50. How it is done:
(§1) Stable Rat2 cell pools stably expressing FGFR2-CCDC147 or FGFR2-VCL fusions, respectively, were generated using pExoIN2-based expression plasmids ExoIN2-FGFR2_CCDC147 and pExoIN2-FGFR2_VCL. pExoIN2 was obtained from Trenzyme, (Germany). The latter expression plasmids were introduced into Rat2 cells by electroporation (LONZA Nucleofector II Device/program [X-005], Solution R). 24 h post-transduction, cells were subjected to 1.5 µg/mL puromycin to derive stable expressor cell pools. The FGFR2-CCDC147 sequence used in this example was composed of SEQ ID NO: 16 for the FGFR2 part (nucleic acid 1 to nucleic acid 2574) and SEQ ID NO: 20 for the CCDC147 part (nucleic acid 156 to nucleic acid 3313). The FGFR2-VCL sequence used was composed of SEQ ID NO: 16 for the FGFR2 part (nucleic acid 1 to nucleic acid 2574) and SEQ ID NO: 18 for the VCL part (nucleic acid 2117 to nucleic acid 5482).
(§2) Rat2 cells obtained as per Example 4 (either parental cells or cells expressing FGFR2-VCL or FGFR2-CCDC147 fusion polypeptide) were used in this assay. Cells were seeded in 96 well plates and cultured for 24 h before addition of FGFR inhibitors (the same as in section (1) above). After 72 h of further incubation, cell growth was analyzed by determination of the cellular ATP content (Cell Titer Glo; Promega) using a luminescence plate reader.
(In general: ATP-based viability assays read luminescence as a measure of living cells.)

A further series relates to Rat2-FGFR2-CCDC147 tumor. Description: In vivo sensitivity, subcutaneously implanted Rat2-FGFR2-CCDC147 tumor model. Details: species or system female NMRI nude mice. To be noted: 30 and 60 mg/kg orally once daily for 14 consecutive days. How it is done: On Day 0, 5×10^6 FGFR2-CCDC147-expressing Rat2 cells in 100 μl PBS were subcutaneously implanted into the left flank of 5-6 week-old female NMRI nude mice (group size of 6 animals). […] Primary tumor sizes were measured twice weekly by calipering. Animals were terminated on last day of treatment and tumors weighed at necropsy.

The subject of series [2] is FGFR2-CCDC147 expressing Rat2 cells. Put plainly: Cell proliferation assay using FACS, FGFR2-CCDC147 expressing cells. The class given is cell-based, rat. The note with it: 72 h with inhibitor, cells counted by FACS, read-out: Relative IC50. How it is done: (§3) At the end of the incubation period, cells were counted by FACS. IC50 values were calculated in Graphpad Prism 6 using sigmoidal response (variable slope) curve fit.

Series [3] relates to FGFR2-VCL expressing Rat2 cells. Description: Cell proliferation assay using FACS, FGFR2-VCL expressing cells. Format: cell-based, rat. The note with it: 72 h with inhibitor, cells counted by FACS, read-out: Relative IC50. The protocol: as §3
On the technique in general: In flow cytometry, cells or beads pass a laser one at a time.

In series [4] the test system is Rat2 parental cells. The note with it: read-out: Relative IC50, 72 h with inhibitor, cellular ATP content (Cell Titer Glo). The protocol: as §1, §2
The subject of series [5] is Rat2 parental cells. Description: Cell proliferation assay using FACS, parental cells. To be noted: 72 h with inhibitor, cells counted by FACS, read-out: Relative IC50. The class given is cell-based, rat. How it is done:
as §1

In series [6] the test system is FGFR2-VCL expressing Rat2 cells. Put plainly: Cell proliferation assay using Cell Titer Glo, FGFR2-VCL expressing cells. Format: cell-based, rat. To be noted: 72 h with inhibitor, cellular ATP content (Cell Titer Glo), read-out: Relative IC50. How it is done: as §1, §2
The next series concerns Rat2-FGFR2-VCL tumor. Put plainly: In vivo sensitivity, subcutaneously implanted Rat2-FGFR2-VCL tumor model. Details: species or system female NMRI nude mice. How it is done: On Day 0, 1×10^6 FGFR2-VCL expressing Rat2 cells in 100 μl PBS were subcutaneously implanted into the left flank of 5-6 week-old female NMRI nude mice (group size of 6 animals).
Primary tumor sizes were measured twice weekly by calipering. Animals were terminated on last day of treatment and tumors weighed at necropsy.

The target of series [7] is T1, FGFR2-CCDC147 fusion polypeptide (Homo sapiens, UniProt P21802).
T1 construct: CCDC147 (CFAP58) polypeptide part (fusion partner, same polypeptide); expressed in transfected cells; host or cells: HEK293T; the other entry of the earlier key: CFAP58 (Q5T655, Cilia- and flagella-associated protein 58)
Put plainly: Autophosphorylation of FGFR2-CCDC147 in transiently transfected HEK293T cells, Western blot. To be noted: FGFR2-CCDC147-expressing HEK293T cells, 1E-05 M, 90 min. Format: cell-based. From the text: (§4) In this example, the following sequences were used: the FGFR2-CCDC147 fusion gene was composed of SEQ ID NO: 16 for the FGFR2 part (nucleic acid 1 to nucleic acid 2574) and SEQ ID NO: 20 for the CCDC147 part (nucleic acid 156 to nucleic acid 3313); and the FGFR2-VCL fusion gene was composed of SEQ ID NO: 16 for the FGFR2 part (nucleic acid 1 to nucleic acid 2574) and SEQ ID NO: 18 for the VCL part (nucleic acid 2117 to nucleic acid 5482).
(§5) HEK293T cells were transiently transfected with expression plasmids containing either an FGFR2-VCL or an FGFR2-CCDC147 fusion gene, which genes had been supplemented with a C-terminal double myc-tag extension. As a negative control, HEK293T cells were mock-transfected. […] The expression of myc-tagged fusion polypeptide was determined using the anti-myc antibody 9E10 (α-myc), and the phosphorylation analysis was performed with the anti-phospho-tyrosine antibody pY99 (α-pY).
For orientation: In western blotting, separated proteins are transferred to a membrane and probed.

For series [8], the target named is T1, FGFR2-CCDC147 fusion polypeptide. Description: Autophosphorylation of FGFR2-CCDC147 in transiently transfected HEK293T cells, sandwich phosphotyrosine ELISA. The class given is cell-based. To be noted: FGFR2-CCDC147-expressing HEK293T cells, 1E-05 M, 90 min.
Excerpt: as §4
(§6) After treatment, autophosphorylation of the FGFR2 fusion polypeptides was analysed using a sandwich phosphotyrosine ELISA. Each condition was done in duplicates.

Series [9] addresses T2, FGFR2-VCL fusion polypeptide (Homo sapiens, UniProt P21802).
T2 construct: VCL polypeptide part (fusion partner, same polypeptide); expressed in transfected cells; host or cells: HEK293T; the other entry of the earlier key: VCL (P18206, Vinculin)
Put plainly: Autophosphorylation of FGFR2-VCL in transiently transfected HEK293T cells, Western blot. The note with it: FGFR2-VCL-expressing HEK293T cells, 1E-05 M, 90 min. Format: cell-based.
Excerpt: as §4, §5

For series [10], the target named is T2, FGFR2-VCL fusion polypeptide. Description: Autophosphorylation of FGFR2-VCL in transiently transfected HEK293T cells, sandwich phosphotyrosine ELISA. Format: cell-based. The note with it: FGFR2-VCL-expressing HEK293T cells, 1E-05 M, 90 min.
Excerpt: as §4, §6

“Also recorded” adds a separate entry of the source. Like-named read-outs stand apart in the source and are kept apart here. A value given as a limit tells only on which side of the number the result lay.

One may read the IC50 as the concentration needed to halve the response being measured.

T1 sequence (P21802 with tags, fused parts or gaps): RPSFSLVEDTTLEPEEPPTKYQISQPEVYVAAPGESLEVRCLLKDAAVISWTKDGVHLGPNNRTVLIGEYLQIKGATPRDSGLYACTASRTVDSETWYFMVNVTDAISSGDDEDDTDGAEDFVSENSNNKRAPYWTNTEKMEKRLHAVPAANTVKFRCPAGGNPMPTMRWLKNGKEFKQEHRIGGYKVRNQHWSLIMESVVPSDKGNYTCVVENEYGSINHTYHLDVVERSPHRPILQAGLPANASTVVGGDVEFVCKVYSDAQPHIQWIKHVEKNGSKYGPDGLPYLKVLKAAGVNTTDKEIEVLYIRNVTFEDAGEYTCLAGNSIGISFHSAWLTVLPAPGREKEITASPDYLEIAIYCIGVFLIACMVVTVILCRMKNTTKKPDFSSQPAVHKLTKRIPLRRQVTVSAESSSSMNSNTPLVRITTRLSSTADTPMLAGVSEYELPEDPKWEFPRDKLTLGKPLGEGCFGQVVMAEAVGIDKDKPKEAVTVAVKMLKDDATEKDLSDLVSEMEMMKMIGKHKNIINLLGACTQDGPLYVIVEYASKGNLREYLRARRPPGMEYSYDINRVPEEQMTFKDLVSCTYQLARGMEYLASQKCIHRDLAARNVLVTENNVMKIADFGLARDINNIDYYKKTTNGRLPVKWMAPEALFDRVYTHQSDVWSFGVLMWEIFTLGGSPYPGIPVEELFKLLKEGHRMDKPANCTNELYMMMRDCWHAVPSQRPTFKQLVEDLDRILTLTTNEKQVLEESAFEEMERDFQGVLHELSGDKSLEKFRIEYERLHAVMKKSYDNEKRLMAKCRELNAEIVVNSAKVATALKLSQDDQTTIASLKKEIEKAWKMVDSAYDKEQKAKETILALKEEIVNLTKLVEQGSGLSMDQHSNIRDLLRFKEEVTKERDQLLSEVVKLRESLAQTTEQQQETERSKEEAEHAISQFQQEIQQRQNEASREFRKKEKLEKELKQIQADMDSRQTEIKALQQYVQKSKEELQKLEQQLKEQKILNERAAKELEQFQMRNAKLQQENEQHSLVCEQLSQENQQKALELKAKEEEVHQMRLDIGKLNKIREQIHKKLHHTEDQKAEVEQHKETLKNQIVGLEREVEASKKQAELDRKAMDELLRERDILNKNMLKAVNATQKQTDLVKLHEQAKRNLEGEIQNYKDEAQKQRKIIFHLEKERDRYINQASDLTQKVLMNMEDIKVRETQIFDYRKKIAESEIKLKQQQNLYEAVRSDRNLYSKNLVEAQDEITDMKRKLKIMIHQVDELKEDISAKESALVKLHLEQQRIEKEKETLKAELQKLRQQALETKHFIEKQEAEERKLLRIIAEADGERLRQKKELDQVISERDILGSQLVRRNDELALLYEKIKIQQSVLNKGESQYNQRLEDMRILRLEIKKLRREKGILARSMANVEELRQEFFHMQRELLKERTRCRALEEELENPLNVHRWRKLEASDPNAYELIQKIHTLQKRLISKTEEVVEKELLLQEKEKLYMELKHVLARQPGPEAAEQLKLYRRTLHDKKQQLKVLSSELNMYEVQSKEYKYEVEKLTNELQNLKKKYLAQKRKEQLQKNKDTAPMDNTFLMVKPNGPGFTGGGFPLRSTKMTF
T2 sequence (P21802 with tags, fused parts or gaps): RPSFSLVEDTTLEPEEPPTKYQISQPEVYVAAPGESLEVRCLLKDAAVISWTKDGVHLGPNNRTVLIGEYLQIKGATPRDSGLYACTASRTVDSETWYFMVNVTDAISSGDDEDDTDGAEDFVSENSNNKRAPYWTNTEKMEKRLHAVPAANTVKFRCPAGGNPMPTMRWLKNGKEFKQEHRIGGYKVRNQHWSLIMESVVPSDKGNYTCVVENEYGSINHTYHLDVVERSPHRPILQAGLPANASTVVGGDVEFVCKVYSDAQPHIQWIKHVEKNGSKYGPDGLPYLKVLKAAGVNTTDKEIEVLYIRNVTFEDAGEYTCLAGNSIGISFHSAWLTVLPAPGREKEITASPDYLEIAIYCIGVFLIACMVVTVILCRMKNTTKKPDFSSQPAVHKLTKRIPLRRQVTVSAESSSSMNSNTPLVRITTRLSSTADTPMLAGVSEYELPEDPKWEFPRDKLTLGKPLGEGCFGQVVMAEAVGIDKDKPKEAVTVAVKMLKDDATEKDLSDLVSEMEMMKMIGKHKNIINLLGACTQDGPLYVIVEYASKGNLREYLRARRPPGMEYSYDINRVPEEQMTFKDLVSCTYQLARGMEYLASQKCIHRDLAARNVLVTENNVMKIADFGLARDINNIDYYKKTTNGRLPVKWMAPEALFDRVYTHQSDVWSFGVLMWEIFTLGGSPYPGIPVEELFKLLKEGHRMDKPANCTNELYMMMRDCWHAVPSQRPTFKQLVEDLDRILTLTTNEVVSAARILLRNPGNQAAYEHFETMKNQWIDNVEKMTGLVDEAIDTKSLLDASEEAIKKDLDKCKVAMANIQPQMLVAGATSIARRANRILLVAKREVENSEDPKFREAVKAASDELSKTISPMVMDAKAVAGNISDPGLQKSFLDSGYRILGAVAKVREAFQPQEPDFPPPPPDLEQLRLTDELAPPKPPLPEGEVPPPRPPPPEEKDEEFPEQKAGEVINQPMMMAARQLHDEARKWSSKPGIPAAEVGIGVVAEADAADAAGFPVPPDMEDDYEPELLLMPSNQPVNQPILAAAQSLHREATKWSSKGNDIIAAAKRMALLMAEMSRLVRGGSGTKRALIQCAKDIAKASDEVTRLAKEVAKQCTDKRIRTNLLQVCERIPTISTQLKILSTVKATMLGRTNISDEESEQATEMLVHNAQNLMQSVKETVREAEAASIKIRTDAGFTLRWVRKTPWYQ

Regarding `Cc1nc2cc(-n3ncc(C(=O)c4cc5ccccc5[nH]4)c3N)ccc2[nH]1` [Compound A], the 50% inhibitory concentration (IC50) in [1] was 73.4 nM; in series [2], 14.7 nM; in series [3], 227 nM; in the series with Rat2 parental cells [4] it was > 3000 nM; in the series with Rat2 parental cells [5] it was > 1020 nM; in [6], 0.53 nM. For the same compound, the “effect on body weight” value in the series with Rat2-FGFR2-CCDC147 tumor was “no significant effect”; in the series with Rat2-FGFR2-VCL tumor (30 or 60 mg/kg orally once daily for 14 consecutive days), “without significantly affecting body weight”. For the same compound, the “antitumor efficacy (tumor growth)” value in the series with Rat2-FGFR2-CCDC147 tumor (established tumors) is “inhibited tumor growth; also recorded: highly significant antitumoral efficacy”; in the series with Rat2-FGFR2-VCL tumor (60 mg/kg-treated group, orally once daily for 14 consecutive days) it was “Tumor stasis”; with Rat2-FGFR2-VCL tumor (30 and 60 mg/kg orally once daily for 14 consecutive days, established tumors) it was “inhibited tumor growth; also recorded: highly significant and dose-dependent antitumoral efficacy”.

Regarding `COC(=O)c1ccc2c(c1)NC(=O)/C2=C(\Nc1ccc(N(C)C(=O)CN2CCN(C)CC2)cc1)c1ccccc1` [Vargatef], the “autophosphorylation of fusion polypeptide (anti-phospho-tyrosine Western blot)” value in series [7] is “somewhat more marginally”; in series [9], “substantially reduced”. Also, the “levels of FGFR phosphorylation (phosphotyrosine ELISA)” value in [8] and in series [10] was “decreased” throughout.
